Test results reported in patent publication US7756643B2, “Method for determining the biological effect and/or activity of at least one drug, chemical substances and/or pharmaceutical composition based on their effect on the methylation status of DNA” (Epigenomics AG, priority 2001, dated 2010).
Where no end group is shown, it is not given here.

Assays:
CpGs of the Fas-L gene = assay: Peptide library screening: methylation status of CpGs in a T-cell line; assay type: cell-based; settings: 10 days, versus untreated control
Experimental: A peptide library was prepared in a 96-well culture plate which contained overlapping peptide fragments derived from the peptide sequence of human serum albumine (HSA). As positive controls, each of vasoactive intestinal peptide (VIP) and pituitary adenylate cyclase-activating polypeptide (PACAP) was added in one of the wells.
A T-cell line (example?) was incubated together with the peptides and VIP or PACAP. After 10 days, the cells of the VIP/PACAP and HSA peptide treated as well as untreated control cell line cultures were collected by centrifugation and the chromosomal DNA was prepared using QIAamp DNA Mini Kit as recommended by the manufacturer (Quiagen, Hilden, Germany).
Subsequently, the chromosomal DNAs were bisulphite treated as published, for example, according to Olek et al. 6 different multiplex PCR reactions were performed on the 3 bisulphite DNA samples (untreated control, HSA and VIP/PACAP treated samples) using Cy5-labelled primer. The products of the methylation specific PCR reactions performed on the same DNA samples were combined. These complex mixtures of 64 PCR products derived from the three DNA samples were comparatively hybridised onto oligo micro arrays representing 256 CpG and the methylation statuses of the CpGs were analysed according to a method described in WO 99/28498.

T cells = settings: through down-regulation of Fas ligand (FasL); cited from earlier work

Substance	methylation status of CpGs of the Fas-L gene (CpGs of the Fas-L gene)	protection of T cells from activation-induced cell death (T cells)
pituitary adenylate cyclase-activating polypeptide (HSDGIFTDSYSRYRKQMAVKKYLAAVLGKRYKQRVKNK; ends and bridges not checked; UniProt P18509 132-169, looked up) [PACAP, positive control peptide]	significantly changed	protect T cells from activation-induced cell death
vasoactive intestinal peptide (HSDAVFTDNYTRLRKQMAVKKYLNSILN; ends and bridges not checked; UniProt P01282 125-152, looked up) [VIP, positive control peptide]	significantly changed	protect T cells from activation-induced cell death
